Experimental findings from patent US9107415B2, “2-(substituted-phenyl)-cyclopentane-1,3-dione compounds, and derivatives thereof” (Syngenta Limited, priority 2011, dated 2015) are described below.

Holding throughout (assay type): in vivo
The test system of one experiment is Winter Barley “Suzuka”. Nature of the experiment: Biological Example 4B post-emergence phytotoxicity on cereal crops. The conditions noted are these: 14 DAA, technical compound in IF50 + Adigor, mean of two. How it is done: (§1) Seeds of a variety of test species are sown in standard soil in pots. After cultivation for 14 days under controlled conditions in a glasshouse (at 22/16°C., day/night; 16 hours light; 65% humidity), the plants are sprayed with an aqueous spray solution derived from the formulation of the technical active ingredient dissolved in acetone plus IF50 containing
(§2) 10.56 wt % Emulsogen™EL (castor oil ethoxylate, CAS Registry number 61791-12-6)
(§3) 42.22 wt % N-Methyl pyrrolidone
(§4) 42.22 wt % dipropylene glycol monoethyl ether
(§5) at a 1:20 ratio of (technical active ingredient:IF50). The adjuvant Adigor™(an adjuvant containing inter alia methylated rapeseed oil, e.g. available from Syngenta) is added to form a 0.5% v/v solution. The test plants are then grown on under controlled conditions in the glasshouse (at 22/16°C., day/night; 16 hours light; 65% humidity) and are watered twice daily. After 14 days the test is evaluated (100%=total damage to plant; 0%=no damage to plant).
(§6) […] Herbicidal activity (phytotoxicity) is evaluated visually, and an assessed percentage phytotoxicity score is given for each herbicidal application on each plant species (with 100%=total damage to plant; 0%=no damage to plant). Two repetitions are made for each experiment, and the mean herbicidal activity (phytotoxicity) data is reported.

Another experiment relates to Winter Wheat “Hereward”. The description is as above. The conditions noted are these: 14 DAA, technical compound in IF50 + Adigor, mean of two. On the procedure:
as §1, §2, §3, §4, §5, §6

Experiment [1] deals with Echinochloa crus galli, barnyardgrass (ECHCG). Nature of the experiment: Biological Example 3 glasshouse screen, post-emergence herbicidal activity. The note with it: 360 h, 15 DAA, no safener, read-out: ECHCG percentage phytotoxicity; for pest or weed control at 30 g/ha: application rate 30 g/ha; for pest or weed control at 60 g/ha: application rate 60 g/ha. In short, it runs like this:
(§7)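 Selectivity screen without safener: 12-day-old plants sprayed post-emergence with acetone/IF50-formulated compound plus 0.2% v/v X-77, kept in glasshouse, visually rated for % injury 15 days after application.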

Experiment [2] relates to Avena fatua, wild oats (AVEFA). The experiment is described as above. The note with it: 360 h, 15 DAA, no safener, read-out: AVEFA percentage phytotoxicity; for pest or weed control at 30 g/ha: application rate 30 g/ha; for pest or weed control at 60 g/ha: application rate 60 g/ha. In short, it runs like this:
as §7

In experiment [3] the test system is Lolium perenne, perennial ryegrass (LOLPE). The experiment is described as above. The note with it: 360 h, 15 DAA, no safener, read-out: LOLPE percentage phytotoxicity; for pest or weed control at 30 g/ha: application rate 30 g/ha; for pest or weed control at 60 g/ha: application rate 60 g/ha. In short, it runs like this: as §7
Experiment [4] concerns Alopecurus myosuroides, blackgrass (ALOMY). Described as above. The conditions noted are these: 360 h, 15 DAA, no safener, read-out: ALOMY percentage phytotoxicity; for pest or weed control at 30 g/ha: application rate 30 g/ha; for pest or weed control at 60 g/ha: application rate 60 g/ha. In short, it runs like this: as §7
Another experiment deals with Spring Wheat “Teal”. Kind of experiment: Biological Example 4B post-emergence phytotoxicity on cereal crops. The note with it: 14 DAA, technical compound in IF50 + Adigor, mean of two. On the procedure:
as §1, §2, §3, §4, §5
Post-emergence herbicidal activity (phytotoxicity) data, on certain grassy monocotyledonous weeds and cereal crops in a glasshouse, are measured 14 days after application of the herbicide (14 DAA), for (a) a […] the same time as the herbicide, and (b) for a post-emergence application rate of 30 g/ha of the test herbicide with 50 g/ha of cloquintocet-mexyl safener applied at substantially the same time as the herbicide. Herbicidal activity (phytotoxicity) is evaluated visually, and an assessed percentage phytotoxicity score is given for each herbicidal application on each plant species (with 100%=total damage to plant; 0%=no damage to plant). Two repetitions are made for each experiment, and the mean herbicidal activity (phytotoxicity) data is reported.

Experiment [5] has as its system Alopecurus myosuroides (ALOMY). Nature of the experiment: Biological Example 1 glasshouse screen, post-emergence herbicidal activity. The conditions noted are these: 312 h, application rate 250 g/ha, evaluated after 13 days, read-out: ALOMY percentage phytotoxicity. The procedure, abridged: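 Potted test species received a foliar or soil spray of active ingredient in acetone/water (50:50), 0.5% Tween 20, at 1 or 8 days after sowing for pre- and post-emergence respectively. Percentage phytotoxicity was assessed by eye after 13 days.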

The subject of the next experiment is Lolium perenne (LOLPE). The experiment is described as above. The conditions noted are these: 312 h, application rate 250 g/ha, evaluated after 13 days, read-out: LOLPE percentage phytotoxicity. In short, it runs like this: (§8)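 Pots in a glasshouse (24/16°C day/night, 14 h light, 65% humidity) were sprayed one day after sowing (pre-emergence) or after 8 days (post-emergence), using acetone/water (50:50) with 0.5% Tween 20. Phytotoxicity was scored visually as % damage (0-100) 13 days after application.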

The test system of another experiment is Avena fatua (AVEFA). Described as above. The conditions noted are these: 312 h, application rate 250 g/ha, evaluated after 13 days, read-out: AVEFA percentage phytotoxicity. The procedure, abridged: as §8
Setting [6] is: 30 g/ha, cloquintocet-mexyl 50 g/ha.
Where [7] appears, read: 60 g/ha, cloquintocet-mexyl 0 g/ha.
Where [8] appears, read: 60 g/ha, cloquintocet-mexyl 50 g/ha.
[9] abbreviates: 15 g/ha, cloquintocet-mexyl 50 g/ha.

With `CC#Cc1cc(C)c(C2=C(O)CC(Cc3ccc(C)cn3)C2=O)c(C)c1` (stereo not shown) [Compound A-8], the “Winter Barley “Suzuka” phytotoxicity (%)” value with Winter Barley “Suzuka” (setting [6]) is 9%; in the experiment on Winter Barley “Suzuka” (setting [7]), 73%; in the experiment on Winter Barley “Suzuka” (setting [8]) it was 60%. In addition, the “Winter Wheat “Hereward” phytotoxicity (%)” value with Winter Wheat “Hereward” (setting [6]) is reported as 13%; in the experiment with Winter Wheat “Hereward” (setting [7]) it was 63%; in the experiment on Winter Wheat “Hereward” (setting [8]), 45%. For the same molecule, the pest or weed control at 30 g/ha in experiment [1] is 70%; in experiment [2], 70%; in experiment [3] it was 90%; in experiment [4], 80%. Also, the “Spring Wheat “Teal” phytotoxicity (%)” value in the experiment with Spring Wheat “Teal” (setting [6]) was 0%; in the experiment with Spring Wheat “Teal” (setting [7]), 73%; in the experiment on Spring Wheat “Teal” (setting [8]) it was 25%. In addition, the pest or weed control at 250 g/ha (in experiment [5]; in the experiment with Lolium perenne (LOLPE); with Avena fatua (AVEFA)) was 100% each time.

With `CC#Cc1cc(C)c(C2=C(O)CC(Cc3ccc(F)cn3)C2=O)c(C)c1` (stereo not shown) [Compound A-11], the “Winter Barley “Suzuka” phytotoxicity (%)” value in the experiment with Winter Barley “Suzuka” (setting [6]) was 8%; in the experiment with Winter Barley “Suzuka” (setting [7]), 68%; with Winter Barley “Suzuka” (setting [8]), 33%. For the same molecule, the “Winter Wheat “Hereward” phytotoxicity (%)” value in the experiment on Winter Wheat “Hereward” (setting [6]) turned out to be 3%; in the experiment with Winter Wheat “Hereward” (setting [7]) it was 55%; in the experiment with Winter Wheat “Hereward” (setting [8]), 8%. Also, the pest or weed control at 30 g/ha in [1] turned out to be 100%; in [2] it was 70%; in [3], 80%; in [4], 90%. In addition, the pest or weed control at 60 g/ha in experiment [1], in experiment [2], in experiment [3] and in experiment [4] was 100% in each case. Further, the figures for the “Spring Wheat “Teal” phytotoxicity (%)” value in the experiment on Spring Wheat “Teal” (setting [6]), with Spring Wheat “Teal” (setting [7]) and with Spring Wheat “Teal” (setting [8]) were 8%, 38% and 15%, respectively. In addition, the pest or weed control at 250 g/ha came to 100% in experiment [5], 100% with Lolium perenne (LOLPE) and 90% in the experiment on Avena fatua (AVEFA).

In the case of `CC#Cc1cc(C)c(C2=C(O)CC(Cc3ccc(C#N)cn3)C2=O)c(C)c1` (stereo not shown) [Compound A-14], the “Winter Barley “Suzuka” phytotoxicity (%)” value in the experiment with Winter Barley “Suzuka” (setting [6]) came out at 45%; in the experiment on Winter Barley “Suzuka” (setting [7]), 97%; in the experiment on Winter Barley “Suzuka” (setting [8]) it was 93%. Also, the “Winter Wheat “Hereward” phytotoxicity (%)” value was 30% in the experiment with Winter Wheat “Hereward” (setting [6]), 80% with Winter Wheat “Hereward” (setting [7]) and 78% with Winter Wheat “Hereward” (setting [8]). In addition, the pest or weed control at 30 g/ha was 90% in experiment [1], 0% in [2], 70% in [3] and 70% in [4]. The pest or weed control at 60 g/ha in experiment [1] worked out at 90%; in experiment [2], 60%; in experiment [3] it was 80%; in [4] it was 90%. In addition, the “Spring Wheat “Teal” phytotoxicity (%)” value in the experiment with Spring Wheat “Teal” (setting [6]) is 13%; in the experiment with Spring Wheat “Teal” (setting [7]), 83%; in the experiment on Spring Wheat “Teal” (setting [8]) it was 65%. The pest or weed control at 250 g/ha worked out at 100% in experiment [5], 100% with Lolium perenne (LOLPE) and 90% in the experiment on Avena fatua (AVEFA).

As to `CC#Cc1cc(C)c(C2C(=O)CC(Cc3ccn(C)n3)C2=O)c(C)c1` (stereo not shown) [Compound A-19], the “Winter Barley “Suzuka” phytotoxicity (%)” value in the experiment on Winter Barley “Suzuka” (setting [9]) came out at 3%; in the experiment on Winter Barley “Suzuka” (setting [6]), 55%; in the experiment on Winter Barley “Suzuka” (setting [7]), 97%; with Winter Barley “Suzuka” (setting [8]) it was 95%. Further, the “Winter Wheat “Hereward” phytotoxicity (%)” value in the experiment on Winter Wheat “Hereward” (setting [9]) turned out to be 58%; in the experiment on Winter Wheat “Hereward” (setting [6]) it was 65%; in the experiment on Winter Wheat “Hereward” (setting [7]), 89%; in the experiment with Winter Wheat “Hereward” (setting [8]), 75%. For the same molecule, the pest or weed control at 15 g/ha turned out to be 70% in [1] (application rate 15 g/ha), 40% in [2] (application rate 15 g/ha), 30% in experiment [3] (application rate 15 g/ha) and 80% in experiment [4] (application rate 15 g/ha). Besides, the pest or weed control at 30 g/ha was found to be 100% in experiment [1], 90% in experiment [2], 80% in experiment [3] and 100% in experiment [4]. Besides, the “Spring Wheat “Teal” phytotoxicity (%)” value stood at 23% in the experiment with Spring Wheat “Teal” (setting [9]), 73% in the experiment on Spring Wheat “Teal” (setting [6]), 90% in the experiment with Spring Wheat “Teal” (setting [7]) and 83% in the experiment with Spring Wheat “Teal” (setting [8]). In addition, the pest or weed control at 250 g/ha (in experiment [5]; in the experiment with Lolium perenne (LOLPE); with Avena fatua (AVEFA)) was 100% throughout.
